Here are results for 3 compounds from ChEMBL document CHEMBL4732086, “Targeting nuclear protein TDP-43 by cell division cycle kinase 7 inhibitors: A new therapeutic approach for amyotrophic lateral sclerosis” (Eur J Med Chem, 2021).

Calls of active or inactive are those of the source. The calls are words filed in the database; no cut-off is given here.

The subject of data set [1] is Mus musculus. The experiment in a line: Neuroprotective activity in Prp-hTDP43 (A315T) transgenic amyotrophic lateral sclerosis mouse model assessed as decrease in clasping behavioural at 5 mg/kg, ip qd measured on week 3 by rotarod test. It is filed as functional, organism-based. The conditions noted are these: time 3.0 weeks. (In general: Falling from the rotarod earlier than controls is read as motor impairment.)

In data set [2] the target is T1, Dual specificity tyrosine-phosphorylation-regulated kinase 3 (Homo sapiens) (UniProt O43781).
T1 sequence (whole entry): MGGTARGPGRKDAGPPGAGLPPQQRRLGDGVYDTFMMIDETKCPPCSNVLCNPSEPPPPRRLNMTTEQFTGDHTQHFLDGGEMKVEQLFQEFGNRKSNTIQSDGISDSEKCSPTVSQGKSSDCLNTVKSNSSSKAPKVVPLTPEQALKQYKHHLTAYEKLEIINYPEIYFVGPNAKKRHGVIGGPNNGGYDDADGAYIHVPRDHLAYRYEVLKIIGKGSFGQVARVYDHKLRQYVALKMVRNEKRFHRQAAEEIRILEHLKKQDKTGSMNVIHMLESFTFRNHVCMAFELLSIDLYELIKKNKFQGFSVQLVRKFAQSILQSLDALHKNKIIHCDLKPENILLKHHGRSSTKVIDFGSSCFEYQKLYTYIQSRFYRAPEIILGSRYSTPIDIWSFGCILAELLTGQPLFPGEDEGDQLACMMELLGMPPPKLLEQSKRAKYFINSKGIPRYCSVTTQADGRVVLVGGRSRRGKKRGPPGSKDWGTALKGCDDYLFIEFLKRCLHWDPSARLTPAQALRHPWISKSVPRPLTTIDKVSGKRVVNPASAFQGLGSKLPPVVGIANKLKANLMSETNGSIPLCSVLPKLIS
The experiment in a line: Inhibition of recombinant human full length GST-tagged DYRK3 expressed in baculovirus expression system using serine/threonine-18 peptide as substrate at 10 uM incubated for 60 mins in presence of ATP by Z'-LYTE assay.

The nature of data set [3]: Toxicity in Prp-hTDP43 (A315T) mouse at 5 mg/kg, ip qd for 30 days. Conditions: in vivo, 720 h, time 30 day. It is filed as organism-based.
Data set [4] has as its system Mus musculus. The experiment in a line: Neuroprotective activity in Prp-hTDP43 (A315T) mouse assessed by decrease in TDP-43 phosphorylation in spinal cord tissue at 5 mg/kg, ip qd for 30 days by Western blot assay. The data set is classed as functional, organism-based. Conditions: time 30.0 day. For orientation: In western blotting, separated proteins are transferred to a membrane and probed.

In data set [5] the target is Dual specificity tyrosine-phosphorylation-regulated kinase 1A (Homo sapiens) (UniProt Q13627). The experiment in a line: Inhibition of recombinant human full length GST-tagged DYRK1A expressed in baculovirus expression system using serine/threonine-18 peptide as substrate at 10 uM incubated for 60 mins in presence of ATP by Z'-LYTE assay.
For data set [6], the system named is Mus musculus. The experiment in a line: Neuroprotective activity in Prp-hTDP43 (A315T) transgenic amyotrophic lateral sclerosis mouse model assessed as decrease in clasping behavioural at 5 mg/kg, ip qd measured on week 5 by rotarod test. It is filed as functional, organism-based. The conditions noted are these: time 5.0 weeks.
For data set [7], the system named is Caenorhabditis elegans. The experiment in a line: Inhibition of CDC7 in transgenic Caenorhabditis elegans CK423 Bus-8(e2698) expressing human TDP-43 assessed as inhibition of TDP-43 phosphorylation at 10 to 75 uM measured after 6 days by Western blot assay. The conditions noted are these: dose 10-75 µM, time 6.0 day.
In another data set the test system is SH-SY5Y. The experiment in a line: Neuroprotective activity in human SH-SY5Y cells assessed as decrease in cytoplasmic TDP-43 preincubated for 1 hr followed by incubation with ethacrynic acid for 24 hrs measured at 10 uM by immunofluorescence assay. It is filed as functional, cell-based.
Data set [8] concerns Caenorhabditis elegans. The experiment in a line: Inhibition of CDC7 in transgenic Caenorhabditis elegans CK423 Bus-8(e2698) expressing human TDP-43 assessed as inhibition of TDP-43 phosphorylation at 75 uM measured after 6 days by Western blot assay. Conditions: time 6.0 day.

Turning to `Brc1ccccc1CSc1ncnc2[nH]cnc12`, the outcome in the data set with Mus musculus [1], with Mus musculus [4] and in the data set with Mus musculus [6] was Active. For the same compound, the inhibition entry (in [2]; in [5]; with Caenorhabditis elegans [7]) was “inactive” each time. The Activity entry in data set [3] is “Non-Toxic”.
Consider `Clc1cccc(CSc2ncnc3[nH]cnc23)c1`, for which the inhibition entry (in [2]; in data set [5]; in the data set on Caenorhabditis elegans [7]) was “inactive” throughout. Moreover, the outcome in the data set on SH-SY5Y was Active.
In the case of `c1ccc(CSc2ncnc3[nH]cnc23)cc1`, the inhibition result in data set [2] and in data set [5] was “inactive” in each case. Moreover, the inhibition entry in the data set with Caenorhabditis elegans [8] was “Active”.
